What all share (assay type): cell-based
The subject of assay [1] is E. coli ATCC 25922. As to the kind of experiment: In vitro MIC, Broth Dilution Method, E. coli ATCC 25922. The following applies: Escherichia coli. The text has this: (§1) The in vitro activity of the compounds of the present invention as measured by the Minimum Inhibitory Concentration (MIC) in micrograms/ml utilizing the Broth Dilution Method against a variety of Gram-positive and Gram-negative organisms, is as follows:
(§2) Concentration (MIC) in micrograms/ml utilizing the Broth Dilution Method against a variety of Gram-positive and Gram-negative organisms, is as follows:
(§3) In Vitro MIC (μg/ml), Broth Dilution Method

In assay [2] the test system is E. coli TEM 1. As to the kind of experiment: microbe, parasite or virus in culture. The following applies: Escherichia coli, TEM1, read-out: In Vitro MIC.
Description: as §1, §2, §3

The test system of assay [3] is E. cloacae 5699. As to the kind of experiment: In vitro MIC, Broth Dilution Method, E. cloacae 5699.
Description: as §1, §2, §3
Background: Dilution methods test growth across graded concentrations, often in twofold steps.

The subject of assay [4] is E. cloacae P99. The assay can be described thus: In vitro MIC, Broth Dilution Method, E. cloacae P99. The following applies: Enterobacter cloacae, P99, read-out: In Vitro MIC.
Description: as §1, §2, §3

Assay [5] relates to S. marcescens 1071. The assay can be described thus: In vitro MIC, Broth Dilution Method, S. marcescens 1071.
The subject of assay [6] is P. aeruginosa 8710. As to the kind of experiment: In vitro MIC, Broth Dilution Method, P. aeruginosa 8710. The following applies: Pseudomonas aeruginosa.
Description: as §1, §2, §3

Assay [7] concerns P. aeruginosa 18 S/H. As to the kind of experiment: In vitro MIC, Broth Dilution Method, P. aeruginosa 18 S/H. The following applies: Pseudomonas aeruginosa.
Description: as §1, §2, §3

Assay [8] concerns E. faecalis ATCC 29212. The assay can be described thus: In vitro MIC, Broth Dilution Method, E. faecalis ATCC 29212. The following applies: Enterococcus faecalis, ATCC29212.
Description: as §1, §2, §3

Assay [9] concerns S. pneumoniae 6301. As to the kind of experiment: In vitro MIC, Broth Dilution Method, S. pneumoniae 6301.
Description: as §1, §2, §3

Assay [10] concerns S. aureus 1059B. The assay can be described thus: In vitro MIC, Broth Dilution Method, S. aureus 1059B. The following applies: Staphylococcus aureus.
The subject of assay [11] is S. aureus 95. The assay can be described thus: In vitro MIC, Broth Dilution Method, S. aureus 95.
Description: as §1, §2, §3

In assay [12] the test system is S. aureus ATCC 29213. The assay can be described thus: In vitro MIC, Broth Dilution Method, S. aureus ATCC 29213. The following applies: Staphylococcus aureus.
Setting [13] is: ATCC25922, read-out: In Vitro MIC.
[14] abbreviates: Enterobacter cloacae, Broth Dilution Method, E. cloacae 5699, read-out: In Vitro MIC.
Where [15] appears, read: Serratia marcescens, Broth Dilution Method, S. marcescens 1071, read-out: In Vitro MIC.
The mark [16] stands for this setting: Streptococcus pneumoniae, 6301, read-out: In Vitro MIC.
[17] abbreviates: Staphylococcus aureus, Broth Dilution Method, S. aureus 95, read-out: In Vitro MIC.
Where [18] appears, read: ATCC29213, Broth Dilution Method, S. aureus ATCC 29213, read-out: In Vitro MIC.
[19] abbreviates: Enterobacter cloacae, 5699, read-out: In Vitro MIC.
Setting [20] is: Streptococcus pneumoniae, Broth Dilution Method, S. pneumoniae 6301, read-out: In Vitro MIC.
Where [21] appears, read: Staphylococcus aureus, 95, read-out: In Vitro MIC.

In US5329002A, “Antibacterial cephalosporin compounds” (Hoffmann-La Roche Inc., priority 1990, dated 1994) one finds MIC data, which are given here for five molecules.

Counter-ions that a name gives are not always drawn. Like-named read-outs stand apart in the source and are kept apart here.

Turning to `CO/N=C(\C(=O)N[C@@H]1C(=O)N2C(C(=O)O)=C(C[N+]3(C)CCN(c4c(F)cc5c(=O)c(C(=O)O)cn(CCF)c5c4F)CC3)CS[C@H]12)c1csc(N)n1` [Compound A, [6R-[6α,7β(Z)]]-1-[7-[[[(2-amino-4-thiazolyl)(methoxyimino)acetyl]amino]-2-carboxy-8-oxo-5-thia-1-azabicyclo[4.2.0]oct-2-en-3-yl]methyl]-4-[3-carboxy-6,8-difluoro-1-(2-fluoroethyl)-1,4-dihydro-4-oxo-7-quinolinyl]-1-methylpiperazinium iodide], the MIC in assay [1] (setting [13]) was found to be 0.25 µg/mL; in assay [2], 0.25 µg/mL; in assay [3] (setting [14]), 0.5 µg/mL; in assay [4] it was 0.5 µg/mL; in assay [5] (setting [15]), 0.5 µg/mL; in assay [6], 8 µg/mL. For the same molecule, the MIC in [7] came to 8 µg/mL; in assay [8], 64 µg/mL; in assay [9] (setting [16]), 0.063 µg/mL; in assay [10] it was 2 µg/mL; in assay [11] (setting [17]) it was 4 µg/mL; in assay [12] (setting [18]), 4 µg/mL.

Regarding `C[N+]1(CC2=C(C(=O)O)N3C(=O)[C@@H](NC(=O)COc4ccccc4)[C@H]3SC2)CCN(c2c(F)cc3c(=O)c(C(=O)O)cn(CCF)c3c2F)CC1.[I-]` [Compound B, (6R-trans)-4-[3-carboxy-1-(2-fluoroethyl)-6,8-difluoro-1,4-dihydro-4-oxoquinolin-7-yl]-1-[[2-carboxy-8-oxo-7-[(phenoxyacetyl)amino]-5-thia-1-azabicyclo-[4.2.0]oct-2-en-3-yl]methyl]-1-methyl-piperazinium iodide], the MIC turned out to be 0.5 µg/mL in assay [1] (setting [13]); 0.5 µg/mL in assay [2]; 0.5 µg/mL in assay [3] (setting [19]); 0.5 µg/mL in assay [4]; 8 µg/mL in assay [6]; 4 µg/mL in assay [7]. For the same molecule, the figures for the MIC in [8], in assay [9] (setting [20]) and in assay [11] (setting [21]) were 32 µg/mL, 0.25 µg/mL and 1 µg/mL, respectively.

Take `CC(C)(O/N=C(\C(=O)N[C@@H]1C(=O)N2C(C(=O)[O-])=C(C[N+]3(C)CCN(c4c(F)cc5c(=O)c(C(=O)O)cn(CCF)c5c4F)CC3)CS[C@H]12)c1csc(N)n1)C(=O)O` [Compound C, [6R-[6α,7β(Z)]]-1-[[7-[[[(2-amino-4-thiazolyl)[1-(1-carboxy-1-methyl)ethoxy]imino]acetyl]amino]-8-oxo-5-thia-1-azabicyclo-[4.2.0]oct-2-en-3-yl]methyl]-4-[3-carboxy-1-(2-fluoroethyl)-6,8-difluoro-1,4-dihydro-4-oxoquinolin-7-yl]-1-methylpiperazinium hydroxide inner salt monosodium salt]: the MIC turned out to be 0.25 µg/mL in assay [1] (ATCC25922, Broth Dilution Method, E. coli ATCC 25922, read-out: In Vitro MIC); 0.5 µg/mL in assay [2]; 0.5 µg/mL in assay [3] (setting [19]); 2 µg/mL in assay [4]; 0.5 µg/mL in [5] (Serratia marcescens, 1071, read-out: In Vitro MIC); 8 µg/mL in assay [6]. The MIC in assay [7] was 8 µg/mL; in assay [8] it was 32 µg/mL; in assay [9] (setting [20]), 1 µg/mL; in assay [10] it was 8 µg/mL; in assay [11] (setting [21]), 4 µg/mL; in assay [12] (ATCC29213, read-out: In Vitro MIC) it was 4 µg/mL.

In the case of `CCn1cc(C(=O)O)c(=O)c2cc(F)c(N3CC[N+](C)(CC4=C(C(=O)O)N5C(=O)[C@@H](NC(=O)/C(=N\OC)c6csc(N)n6)[C@H]5SC4)CC3)cc21` [Compound D, [6R-[6α,7β(Z)]]-1-[[7-[[(2-amino-4-thiazolyl)(methoxyimino)acetyl]amino]-2-carboxy-8-oxo-5-thia-1-azabicyclo[4.2.0]-oct-2-en-3-yl]methyl]-4-(3-carboxy-1-ethyl-6-fluoro-1,4-dihydro-4-oxo-7-quinolinyl)-1-methylpiperazinium iodide], the MIC worked out at 0.5 µg/mL in assay [1] (setting [13]); 0.5 µg/mL in [2]; 1 µg/mL in [3] (setting [14]); 1 µg/mL in [4]; 0.5 µg/mL in [5] (setting [15]); 8 µg/mL in assay [6]. The MIC in [7] came out at 32 µg/mL; in assay [8], 32 µg/mL; in assay [9] (setting [16]), 0.063 µg/mL; in assay [10], 2 µg/mL; in assay [11] (setting [17]), 4 µg/mL; in [12] (setting [18]), 4 µg/mL.

Regarding `C[N+]1(CC2=C(C(=O)O)N3C(=O)[C@@H](NC=O)[C@H]3SC2)CCN(c2c(F)cc3c(=O)c(C(=O)O)cn(CCF)c3c2F)CC1` [Compound E, trifluoroacetate salt], the MIC in assay [1] (setting [13]) turned out to be 0.5 µg/mL; in [2], 0.5 µg/mL; in assay [3] (setting [19]) it was 0.5 µg/mL; in assay [4], 0.5 µg/mL; in assay [5] (setting [15]), 1 µg/mL; in assay [6] it was 8 µg/mL. The MIC in assay [7] was 8 µg/mL; in assay [8], 32 µg/mL; in assay [9] (setting [20]) it was 1 µg/mL; in [10] it was 0.5 µg/mL; in assay [11] (setting [17]), 1 µg/mL; in [12] (setting [18]), 0.5 µg/mL.
